Experimental data reported in patent US9388195B2, “Heterocyclic compound” (Takeda Pharmaceutical Company Limited, priority 2010, dated 2016).
Structures can show the parent of a compound that is named as a salt.

Experiments:
[1] = system: human colorectal cancer cell Colo205; test: Measurement of antitumor activity in human colorectal cancer cell Colo205 cancer bearing mouse; type: in vivo; conditions: Colo205 tumor growth ratio, mice
Description: Tumor volume=long diameter×short diameter×short diameter×(½) Mice having an engrafted tumor volume of about 200 mm^3 were selected, and 5 mice per group were used for the experiment. […] The tumor diameter was measured one day before the start of the administration and the next day of the completion of the administration and the tumor volume was calculated. The tumor growth ratio of the test compound administration group as compared to that of the control administration group was taken as T/C(%) and calculated by the following formula. T/C(%)=(tumor volume of test compound administration group after completion of administration−tumor volume of test compound administration group one day before start of administration)/(tumor volume of control administration group after completion of administration−tumor volume of control administration group one day before start of administration))×100

Cdc7/Dbf4 complex = biological target: T1, Cdc7/Dbf4 complex (Homo sapiens, UniProt O00311); test: Measurement of Cdc7 kinase inhibitory activity (Transcreener ADP HTRF assay); type: biochemical; conditions: Cdc7/Dbf4, 1.0 μm ATP, 10 μg/ml MCM2; for inhibitory rate (%) at 1 μM: test compound 1 μM; for inhibition at 1 µM: read-out: inhibitory rate (%) at 1 μM, test compound 1 μM
T1 construct: Full-length Cdc7 co-expressed with full-length Dbf4; purchased Carna Biosciences (Kobe)
Description: Full-length Cdc7 co-expressed with full-length Dbf4 was purchased from Carna Biosciences (Kobe). The enzyme activity of Cdc7/Dbf4 complex was detected by homogeneous time-resolved fluorescence method Transcreener ADP assay (Cisbio Inc., MA, U.S.A.). […] Free ADP produced by ATP hydrolysis was detected by Eu^3+-Cryptate-labeled anti-ADP monoclonal antibody competitively with d2-labeled ADP, and the production amount thereof was measured. The obtained time-resolved fluorescence resonance energy transfer signal was measured by EnVision (Perkin Elmer Inc., MA, U.S.A.). The inhibitory rate (%) of the test compound to Cdc7 was calculated by the following formula. Inhibitory rate(%)=(1−(count of test compound-blank)[…](control-blank))×100
The count of the Cdc7/Dbf4 reaction mixture under compound-free conditions was taken as the control, and that under compound-free and Cdc7/Dbf4-free conditions was taken as the blank.

[2] = system: phosphorylated MCM2 (Ser40/Ser41); test: Measurement of MCM2 phosphorylation inhibitory activity in human colorectal cancer cell Colo205 (Western blot); type: cell-based; conditions: COLO 205, 8 h, read-out: inhibitory rate (%) at 1 μM
Description: The MCM2 phosphorylation suppressive action of the compound of the present invention in human colorectal cancer cell Colo205 can be measured as follows. A cell suspension (500 μl) of human colorectal cancer cell Colo205 (purchased from ATCC) (50,000 cells/well) was plated in a 24 well plate, and cultured in a 5% carbon dioxide gas incubator at 37° C. for 1 day. […] The plate was washed with PBS, the cells were lysed in Laemmli Sample Buffer (BioRad), and cell lysate was treated at 95° C. for 5 min.

[3] = system: phosphorylated MCM2 (Ser40/Ser41); test: animal or person; conditions: Mus musculus, COLO 205, po, 4 h, read-out: inhibitory rate (%)
Description: Human colorectal cancer cell Colo205 was suspended in 50% Matrigel solution, and transplanted into 6- to 7-week-old female BALB/c mice (CLEA Japan, Inc.) at 5.0×10^6 cells by subcutaneous injection. The diameter of the tumor engrafted in 7 to 14 days from the transplantation was measured, and the tumor volume was calculated by the following formula. Tumor volume=long diameter×short diameter×short diameter×(½)
A suspension of the test compound in 0.5% methylcellulose solution (Wako Pure Chemical Industries, Ltd.) was orally administered at a dose shown in the Table to mice having a tumor volume of 150-600 mm^3. The tumor was removed under ether anesthesia at 4 hr after administration of the test compound, and homogenized in Cell Lysis Buffer (Cell Signaling). Using BCA Protein assay kit (Thermo Scientific), the protein in the tumor lysate was quantified, and the protein amount was adjusted. The above-mentioned protein solution was treated with Laemmli Sample Buffer (BioRad) at 95° C. for 5 min.
Then, SDS-PAGE was performed and the protein was transferred onto a PVDF membrane by using iBlot™ gel transfer system (Invitrogen). […] The membrane was washed in the same manner as above, chemical luminescence of antibody-labeled phosphorylated MCM2 protein using SuperSignal West FemtoMaximum Sensitivity Substrate (Pierce Biotechnology) was detected by lumino image analyzer LAS-1000 (Fuji Film).
Using the anti-MCM2 antibody (Santa Cruzu Biotechnology, sc-9839) and HRP-labeled goat IgG polyclonal antibody (Santa Cruzu Biotechnology, sc-2020) and in the same manner as above, the MCM2 protein was detected.
The phosphorylated MCM2 specific activity of each sample was calculated by the following formula. Phosphorylated MCM2 specific activity=(phosphorylated MCM2 luminescence level-background)+(MCM2 luminescence level-background)
The phosphorylated MCM2 protein inhibitory rate (%) of the test compound was calculated by the following formula and shown in Table. […]

[4] = system: human colorectal cancer cell Colo205; test: Measurement of growth inhibitory activity on human colorectal cancer cell Colo205 (CellTiter-Glo); type: cell-based; conditions: COLO 205, 72 h, read-out: inhibitory rate (%) at 1 μM
Description: The growth inhibition of colorectal cancer cell Colo205 with the compound of the present invention can be measured as follows.
A cell suspension (100 μl) of human colorectal cancer cell Colo205 (purchased from ATCC) (3,000 cells/well) was plated in a 96 well plate, and cultured in a 5% carbon dioxide gas incubator at 37° C. for 1 day. Each 2 μM test compound solution was added by 100 μl and the cells were cultured for 3 days. CellTiter-Glo™ Luminescent Cell Viability Assay reagent (50 μl, Promega) was added to the 96 well plate, the luminescence level was measured by a luminometer and the residual ATP amount was taken as the cell amount. The luminescence level of a well free of cell plating was taken as a blank. The cell proliferation inhibitory rate (%) of the test compound was calculated by the following formula. Inhibitory rate(%)=(1−(luminescence level of test compound—blank)[…](luminescence level of control group—blank))×100

[5] = 100 mg/kg orally twice a day for 14 days

T1 sequence (O00311 whole entry): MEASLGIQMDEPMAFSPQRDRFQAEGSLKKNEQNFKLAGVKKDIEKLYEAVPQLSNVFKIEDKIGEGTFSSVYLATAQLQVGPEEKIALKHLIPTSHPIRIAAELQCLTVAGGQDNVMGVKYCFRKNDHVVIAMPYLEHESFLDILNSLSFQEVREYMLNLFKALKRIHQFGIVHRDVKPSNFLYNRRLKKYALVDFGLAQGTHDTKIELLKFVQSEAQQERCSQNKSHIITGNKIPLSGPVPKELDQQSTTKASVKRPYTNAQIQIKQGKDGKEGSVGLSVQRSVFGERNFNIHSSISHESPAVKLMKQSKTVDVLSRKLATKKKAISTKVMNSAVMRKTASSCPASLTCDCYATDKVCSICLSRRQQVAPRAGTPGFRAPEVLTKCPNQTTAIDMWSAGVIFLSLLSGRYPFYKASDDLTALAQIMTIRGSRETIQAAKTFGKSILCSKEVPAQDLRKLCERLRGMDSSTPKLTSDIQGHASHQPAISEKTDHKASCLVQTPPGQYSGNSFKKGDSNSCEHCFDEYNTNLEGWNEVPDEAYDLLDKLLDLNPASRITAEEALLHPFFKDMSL
T1 sequence (Q9UBU7 whole entry partner): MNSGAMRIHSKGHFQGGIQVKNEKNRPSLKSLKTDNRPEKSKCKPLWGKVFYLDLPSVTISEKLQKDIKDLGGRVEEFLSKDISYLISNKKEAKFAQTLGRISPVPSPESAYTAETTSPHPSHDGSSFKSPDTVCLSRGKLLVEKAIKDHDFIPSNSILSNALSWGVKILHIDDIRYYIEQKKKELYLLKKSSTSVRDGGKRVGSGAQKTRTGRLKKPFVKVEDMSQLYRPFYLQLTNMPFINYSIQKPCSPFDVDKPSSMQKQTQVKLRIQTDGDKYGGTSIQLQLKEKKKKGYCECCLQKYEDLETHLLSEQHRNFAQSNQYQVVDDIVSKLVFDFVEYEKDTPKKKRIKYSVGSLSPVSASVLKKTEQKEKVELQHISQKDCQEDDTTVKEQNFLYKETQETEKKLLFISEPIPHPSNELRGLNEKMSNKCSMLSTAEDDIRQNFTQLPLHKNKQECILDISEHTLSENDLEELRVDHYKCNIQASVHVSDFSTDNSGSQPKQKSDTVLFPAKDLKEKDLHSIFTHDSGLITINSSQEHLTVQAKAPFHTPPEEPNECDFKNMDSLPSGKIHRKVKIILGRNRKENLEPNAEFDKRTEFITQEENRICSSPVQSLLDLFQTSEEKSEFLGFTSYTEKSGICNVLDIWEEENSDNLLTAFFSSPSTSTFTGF

inhibitory rate (%) at 1 μM (Cdc7/Dbf4 complex; dihydrochloride) [%] | inhibition at 1 µM (Cdc7/Dbf4 complex) [%] | SMILES | T/C (%) ([1]; 50 mg/kg orally twice a day for 14 days) | inhibitory rate (%) at 1 μM (Cdc7/Dbf4 complex; hydrochloride) [%] | T/C (%) [1, 5] [%] | inhibition at 1 µM [2] [%] | inhibition at 100 mg/kg [3] [%] | inhibition at 1 µM [4] [%]
 |  | Cc1[nH]ncc1-c1cc2nc([C@H]3NC4CC3[C@H](F)C4)[nH]c(=O)c2s1 (single isomer, unassigned) [Example 175, 2-[(1R,3S,4R,5R) or (1S,3S,4S,5R)-5-fluoro-2-azabicyclo[2.2.1]hept-3-yl]-6-(5-methyl-1H-pyrazol-4-yl)thieno[3,2-d]pyrimidin-4 (3H)-one hydrochloride] | 40.3 | 105 |  |  |  | 
125.5 |  | Cc1[nH]ncc1-c1cc2nc([C@@H]3CCCCN3)[nH]c(=O)c2s1 [Example 83, 6-(5-methyl-1H-pyrazol-4-yl)-2-[(2S)-piperidin-2-yl]thieno[3,2-d]pyrimidin-4 (3H)-one dihydrochloride] |  |  | 5.7 | 97.6 | 71.8 | 76.6
 | 126 | Cc1[nH]ncc1-c1cc2nc([C@@H]3CC=CCN3)[nH]c(=O)c2s1 [Example 145, 6-(5-methyl-1H-pyrazol-4-yl)-2-[(2S)-1,2,3,6-tetrahydropyridin-2-yl]thieno[3,2-d]pyrimidin-4 (3H)-one dihydrochloride] |  |  | −4.7 | 95.8 | 68.9 | 78.5
 | 102 | O=c1[nH]c([C@@H]2CCCCN2)nc2cc(-c3cn[nH]c3C(F)(F)F)sc12 [Example 161, 2-[(2S)-piperidin-2-yl]-6-[5-(trifluoromethyl)-1H-pyrazol-4-yl]thieno[3,2-d]pyrimidin-4 (3H)-one hydrochloride] |  |  | −3.6 | 96.2 | 80.9 | 78.6
